Results reported in patent US12071488B2, “Method of sensitizing cancer cells to anti-cancer treatment” (TWO TO BIOTECH LTD., priority 2017, dated 2024).

Legend:
estrogen receptor alpha = assay: Western blot analysis of estrogen receptor alpha expression in MDA-MB-231 cells; format: cell-based, human; details: APC1 250 μg/ml once a week for one week or twice a week for 3 or 4 weeks
Description: Abbreviations: M, protein parker; c, control; h, hour; w, week.
In view of the results shown above, the expression level of estrogen receptor alpha was directly assayed.

[1] = tested on: TNBC cancer cells MDA-MB-231 and MDA-MB-468; assay: Glutathione level in TNBC cells treated with APC1; format: cell-based, human; details: TNBC cancer cells (FIG. 18C)
Description: Gluthatione Assay Kit (Sigma CS0260);
Cell lines (MDA-MB-231, MDA-MB-468) were grown in 75 cm^2 cell culture flask, reached 80-90% confluence. The cells were treated with APC1 (250 μg/ml, 2 times per week for 1 week).
Cells were washed twice with 10 ml PBS, PBS (5 ml) was added and the cells were collected by scrapping, centrifuged at 300G, 4° C. for 5 minutes, the supernatant was then discarded and the cells were treated with APC1 as indicated above. The values of the Glutathione Standard Solutions were used to determine the standard curve and the delta A412/min equivalent to 1 nmole of reduced glutathione per well was calculated according to manufacturer's instructions.
As detailed above, the ovarian cancer cells OV90 and OV3, the pancreatic cancer cells BxPC3 and Panel and the TNBC cancer cells MDA-MB-231 and MDA-MB-468 were treated with APC1 and then the relative glutathione levels in these cells was measured as detailed above.

In the case of “EKGAAFSPIYPRRK (C terminal peptide of KTPAF50) [APC1, polypeptide consisting of the 14 C-terminal amino acid residues of the peptide KTPAF50]”, the “expression level of estrogen receptor alpha” value (estrogen receptor alpha) is reported as “clear increase” and the level of glutathione [1] is reported as “decreased”.
